Experimental data from ChEMBL document CHEMBL1151816, “Cytotoxic spirostane-type saponins from the roots of Chlorophytum borivilianum” (J Nat Prod, 2009).
Active and inactive are the calls of the source. The calls are words filed in the database; no cut-off is given here.

Key:
Format in all cases: functional, cell-based
HCT-116 [1] = experiment: Cytotoxicity against human HCT116 cells at 0.38 uM after 4 days by MTT assay
HT-29 = experiment: Cytotoxicity against human HT-29 cells at 2.6 uM after 4 days by MTT assay
HCT-116 [2] = experiment: Cytotoxicity against human HCT116 cells after 4 days by MTT assay; conditions: HCT-116, 96 h

C=C1CC[C@@]2(OC1)O[C@H]1C[C@H]3[C@@H]4CC[C@H]5C[C@@H](O[C@@H]6O[C@H](CO)[C@H](O[C@@H]7O[C@H](CO)[C@@H](O)[C@H](O[C@@H]8OC[C@@H](O)[C@H](O)[C@H]8O)[C@H]7O[C@@H]7O[C@H](CO)[C@@H](O)[C@H](O)[C@H]7O)[C@H](O)[C@H]6O)[C@H](O)C[C@]5(C)[C@H]4CC[C@]3(C)[C@H]1[C@@H]2C
Activity (HCT-116 [1]): Active
Activity (HT-29): Active

CC(=O)O[C@H]1C(=O)[C@@]2(C)[C@H]([C@H](OC(=O)c3ccccc3)[C@]3(O)C[C@H](OC(=O)[C@H](O)[C@@H](NC(=O)c4ccccc4)c4ccccc4)C(C)=C1C3(C)C)[C@]1(OC(C)=O)CO[C@@H]1C[C@@H]2O [PACLITAXEL]
IC50 (HCT-116 [2]): 1.1 nM
